Structures can show the parent of a compound that is named as a salt.

This assay has as its system Human platelet aggregation caused by ADP. In words: Inhibition of ADP-induced platelet aggregation (Mimic-human PRP). The format is cell-based. As to conditions: 20 μM ADP, human platelet concentrate diluted with PPP, absorption at 595 nm. The procedure:
Platelet Preparation for Aggregation Studies
Human platelet aggregation reaction test is a functional experiment method to verify whether a test compound is an agonist or an antagonist to ADP receptor. […] The platelet product isolated from whole blood was purchased from Chung-Nam blood center (Dae-joen, South Korea). The platelet was isolated from 400 mL of whole blood containing 56 mL of CPDA-1 anticoagulant. To isolate the platelet product, 400 mL of whole blood was centrifuged at 260×g for 5 minutes, and then obtained PRP (platelet rich plasma) was secondary centrifuged at 370×g for 6 minutes. Platelet pellet (10^9/mL) was suspended with 45 mL of plasma and then agitated over 1 hour at 22° C. blood reservoir to stabilize it. The stabilized platelet product was used in the experiment within 24 hours. PCs (Platelet Concentrates) were gently transferred to a new 50 ml-falcon tube. The number of platelet was counted by using animal blood counter (ABC Vet, ABX diagnostics, France). The volume of 30 mL of PCs collected from same donor was centrifuged at 1500 g for 10 min at room temperature to prepare platelet-poor plasma (PPP). The platelet count was adjusted to platelet number of 3˜4×10^8/mL by diluting with PPP.
Evaluation on Inhibitory Effect of ADP-Induced Aggregation
Inhibition of ADP-induced aggregation was determined in 96-well flat-bottom plates (Costar, USA) at room temperature. The diluted platelet was aliquoted into each well of 96 well plate in the volume of 188 μl. […] The platelet including test compounds was immediately mixed on a shaker at 1050 rpm for 1 min and incubated at room temperature for 20 min. Then, 10 μL volume of 400 μM ADP was added: the final concentration of 20 μM ADP in the total reaction volume of 0.2 mL/well. After shaking of the plate at room temperature for 3 min, the absorption of the samples was determined at 595 nm using a microtiter plate reader (Softmax, Molecular Devices).
A dose-dependent curve on serial dilutions of ADP was accomplished by adding vehicle (DMSO) instead of antagonists in order to calculate EC50 of ADP. Inhibition of aggregation was calculated from the increase of absorption at 595 nm at 3 min of the reaction incubation, compared to results of absorption between the 0 and 20 μM ADP control without antagonists. Sigmoidal dose-response curves and Ki were derived by non-linear regression analysis using the Prism software (GraphPad, San Diego Calif.).
For the molecule `CCCC(=O)N1CC[C@@H](Nc2nc(N3CCn4c(nnc4C(F)(F)F)C3)c3cc(CCC)sc3n2)C1` [Example 8-17, 1-{(R)-3-[6-Propyl-4-(3-trifluoromethyl-5,6-dihydro-8H-[1,2,4]triazolo[4,3-a]pyrazin-7-yl)-thieno[2,3-d]pyrimidin-2-ylamino]-pyrrolidin-1-yl}-butan-1-one], the Ki (usually the equilibrium dissociation constant of an inhibitor or competing ligand from its target) worked out at 35 nM.

On to `CCCc1cc2c(N3CCn4c(nnc4C(F)(F)F)C3)nc(OC[C@@H]3CCCN3C(C)=O)nc2s1` [Example 8-31, 1-{(S)-2-[6-Propyl-4-(3-trifluoromethyl-5,6-dihydro-8H-[1,2,4]triazolo[4,3-a]pyrazin-7-yl)-thieno[2,3-d]pyrimidin-2-yloxymethyl]-pyrrolidin-1-yl}-ethanone], for which the affinity, expressed as Ki, was 19 nM.

The molecule `CCCC(=O)N[C@H]1CCN(c2nc(N3CCn4c(nnc4C(F)(F)F)C3)c3cc(CCC)sc3n2)C1` [Example 7-1, Hydrochloric acid salt of N-{(S)-1-[6-Propyl-4-(3-trifluoromethyl-5,6-dihydro-8H-[1,2,4]triazolo[4,3-a]pyrazin-7-yl)-thieno[2,3-d]pyrimidin-2-yl]-pyrrolidin-3-yl}-butyramide] had a Ki of 11 nM.

In the case of `CCCc1cc2c(N3CCn4c(nnc4C(F)(F)F)C3)nc(OCCN(C=O)CCO)nc2s1` [Example 9-101, N-(2-Hydroxy-ethyl)-N-{2-[6-propyl-4-(3-trifluoromethyl-5,6-dihydro-8H-[1,2,4]triazolo[4,3-a]pyrazin-7-yl)-thieno[2,3-d]pyrimidin-2-yloxy]-ethyl}-formamide], the Ki came to 12 nM. This Ki and that of the molecule before are within 1.5-fold of each other.

Molecule `CCCc1cc2c(N3CCn4c(nnc4C(F)(F)F)C3)nc(N3CC[C@H](NC=O)C3)nc2s1` [Example 9-21, N-{(S)-1-[6-Propyl-4-(3-trifluoromethyl-5,6-dihydro-8H-[1,2,4]triazolo[4,3-a]pyrazin-7-yl)-thieno[2,3-d]pyrimidin-2-yl]-pyrrolidin-3-yl}-formamide] had a Ki of 6 nM.

On to `CCCc1cc2c(N3CCn4c(nnc4C(F)(F)F)C3)nc(OCCNC=O)nc2s1` [Example 9-23, N-{2-[6-Propyl-4-(3-trifluoromethyl-5,6-dihydro-8H-[1,2,4]triazolo[4,3-a]pyrazin-7-yl)-thieno[2,3-d]pyrimidin-2-yloxy]-ethyl}-formamide], for which affinity was put at a Ki of 3 nM. This Ki is about 2-fold lower than that of the molecule before.

In turn, `CCCc1cc2c(N3CCn4c(nnc4C(F)(F)F)C3)nc(N3CC(O)C(NC(=O)C(C)(CO)CO)C3)nc2s1` (stereo not shown) [Example 7-24, 3-Hydroxy-2-hydroxymethyl-N-{4-hydroxy-1-[6-propyl-4-(3-trifluoromethyl-5,6-dihydro-8H-[1,2,4]triazolo[4,3-a]pyrazin-7-yl)-thieno[2,3-d]pyrimidin-2-yl]-pyrrolidin-3-yl}-2-methyl-propionamide] displayed a Ki of 15 nM.

In the case of `CCCc1cc2c(N3CCn4c(nnc4C(F)(F)F)C3)nc(OCC(C)NC(C)=O)nc2s1` (stereo not shown) [Example 9-77, N-{1-Methyl-2-[6-propyl-4-(3-trifluoromethyl-5,6-dihydro-8H-[1,2,4]triazolo[4,3-a]pyrazin-7-yl)-thieno[2,3-d]pyrimidin-2-yloxy]-ethyl}-acetamide], affinity was put at a Ki of 6 nM. This Ki lies about 2.5-fold lower than the previous one.

Take `CCCc1cc2c(N3CCn4c(nnc4C(F)(F)F)C3)nc(OCCNC(=O)NC)nc2s1` [Example 9-25, 1-Methyl-3-{2-[6-propyl-4-(3-trifluoromethyl-5,6-dihydro-8H-[1,2,4]triazolo[4,3-a]pyrazin-7-yl)-thieno[2,3-d]pyrimidin-2-yloxy]-ethyl}-urea]: the Ki came out at 5.7 nM. The Ki values of the last two molecules are within 1.5-fold of each other.

For the molecule `CCCc1cc2c(N3CCn4c(nnc4C(F)(F)F)C3)nc(N3CC[C@@H](NC(=O)OC)C3)nc2s1` [Example 9-20, {(R)-1-[6-Propyl-4-(3-trifluoromethyl-5,6-dihydro-8H-[1,2,4]triazolo[4,3-a]pyrazin-7-yl)-thieno[2,3-d]pyrimidin-2-yl]-pyrrolidin-3-yl}-carbamic acid methyl ester], the affinity corresponds to a Ki of 6 nM.

`CCCc1cc2c(N3CCn4c(nnc4C(F)(F)F)C3)nc(N3CC[C@H](NC(=O)Oc4ccc(F)cc4)C3)nc2s1` [Example 9-4, {(S)-1-[6-Propyl-4-(3-trifluoromethyl-5,6-dihydro-8H-[1,2,4]triazolo[4,3-a]pyrazin-7-yl)-thieno[2,3-d]pyrimidin-2-yl]-pyrrolidin-3-yl}-carbamic acid 4-fluoro-phenyl ester]: the Ki was found to be 280 nM.

`CCCc1cc2c(N3CCn4c(nnc4C(F)(F)F)C3)nc(N3CCS(=O)(=O)CC3)nc2s1` [Example 1-124, 7-[2-(1,1-Dioxo-1lambda*6*-thiomorpholin-4-yl)-6-propyl-thieno[2,3-d]pyrimidin-4-yl]-3-trifluoromethyl-5,6,7,8-tetrahydro-[1,2,4]triazolo[4,3-a]pyrazine] came in with a Ki of 3.9 nM.

`CCCc1cc2c(N3CCn4c(nnc4C(F)(F)F)C3)nc(N3CC[C@H](NC(C)=O)C3)nc2s1` [Example 1-105, N-{(S)-1-[6-Propyl-4-(3-trifluoromethyl-5,6-dihydro-8H-[1,2,4]triazolo[4,3-a]pyrazin-7-yl)-thieno[2,3-d]pyrimidin-2-yl]-pyrrolidin-3-yl}-acetamide] came in with a Ki of 4.4 nM.

In turn, `CCCc1cc2c(N3CCn4c(nnc4C(F)(F)F)C3)nc(N(C)CCNC=O)nc2s1` [Example 9-41, N-(2-{Methyl-[6-propyl-4-(3-trifluoromethyl-5,6-dihydro-8H-[1,2,4]triazolo[4,3-a]pyrazin-7-yl)-thieno[2,3-d]pyrimidin-2-yl]-amino}-ethyl)-formamide] gave a Ki of 37 nM.

Regarding `CCCc1cc2c(N3CCn4c(nnc4C(F)(F)F)C3)nc(NCCc3c[nH]cn3)nc2s1` [Example 9-45, [2-(1H-Imidazol-4-yl)-ethyl]-[6-propyl-4-(3-trifluoromethyl-5,6-dihydro-8H-[1,2,4]triazolo[4,3-a]pyrazin-7-yl)-thieno[2,3-d]pyrimidin-2-yl]-amine], the Ki was 38 nM.

Molecule `CCCc1cc2c(N3CCn4c(nnc4C(F)(F)F)C3)nc(N3CC[C@H](NC(=O)Nc4ccc(F)c(F)c4)C3)nc2s1` [Example 9-16, 1-(3,4-Difluoro-phenyl)-3-{(S)-1-[6-propyl-4-(3-trifluoromethyl-5,6-dihydro-8H-[1,2,4]triazolo[4,3-a]pyrazin-7-yl)-thieno[2,3-d]pyrimidin-2-yl]-pyrrolidin-3-yl}-urea] displayed a Ki of 880 nM.

Regarding `CCCc1cc2c(N3CCn4c(nnc4C(F)(F)F)C3)nc(N(CCO)c3cnccn3)nc2s1` [Example 9-50, 2-{[6-Propyl-4-(3-trifluoromethyl-5,6-dihydro-8H-[1,2,4]triazolo[4,3-a]pyrazin-7-yl)-thieno[2,3-d]pyrimidin-2-yl]-pyrazin-2-yl-amino}-ethanol], the affinity, expressed as Ki, was 230 nM.

Molecule `CCCc1cc2c(N3CCn4c(nnc4C(F)(F)F)C3)nc(OCCN(CCO)C(C)=O)nc2s1` [Example 9-102, N-(2-Hydroxy-ethyl)-N-{2-[6-propyl-4-(3-trifluoromethyl-5,6-dihydro-8H-[1,2,4]triazolo[4,3-a]pyrazin-7-yl)-thieno[2,3-d]pyrimidin-2-yloxy]-ethyl}-acetamide] gave a Ki of 8 nM.

Consider `CCCc1cc2c(N3CCn4c(nnc4C(F)(F)F)C3)nc(OCC(F)(F)F)nc2s1` [Example 9-84, 7-[6-Propyl-2-(2,2,2-trifluoro-ethoxy)-thieno[2,3-d]pyrimidin-4-yl]-3-trifluoromethyl-5,6,7,8-tetrahydro-[1,2,4]triazolo[4,3-a]pyrazine], for which the affinity corresponds to a Ki of 680 nM. This Ki lies about 85-fold higher than the previous one.

As to `CCCc1cc2c(N3CCn4c(nnc4C(F)(F)F)C3)nc(NCCNC(=O)OC)nc2s1` [Example 9-32, {2-[6-Propyl-4-(3-trifluoromethyl-5,6-dihydro-8H-[1,2,4]triazolo[4,3-a]pyrazin-7-yl)-thieno[2,3-d]pyrimidin-2-ylamino]-ethyl}-carbamic acid methyl ester], the affinity corresponds to a Ki of 29 nM.

The molecule `CCCc1cc2c(N3CCn4c(nnc4C(F)(F)F)C3)nc(N3CC[C@@H](NC(=O)C(C)C)C3)nc2s1` [Example 7-5, Hydrochloric acid salt of N-{(R)-1-[6-Propyl-4-(3-trifluoromethyl-5,6-dihydro-8H-[1,2,4]triazolo[4,3-a]pyrazin-7-yl)-thieno[2,3-d]pyrimidin-2-yl]-pyrrolidin-3-yl}-isobutyramide] had a Ki of 32 nM.

Turning to `CCCc1cc2c(N3CCn4c(nnc4C(F)(F)F)C3)nc(N3CC(NC(C)=O)C(NC(C)=O)C3)nc2s1` (stereo not shown) [Example 7-28, N-{4-Acetylamino-1-[6-propyl-4-(3-trifluoromethyl-5,6-dihydro-8H-[1,2,4]triazolo[4,3-a]pyrazin-7-yl)-thieno[2,3-d]pyrimidin-2-yl]-pyrrolidin-3-yl}-acetamide], the Ki stood at 42 nM.
